In patent US7989449B2, “4,5-dihydro-oxazol-2-yl amine derivatives” (Hoffman-La Roche Inc., priority 2008, dated 2011):
Counter-ions that a name gives are not always drawn.

Target: T1, 6his-tagged full length BACE 1 from SF9 cells (Homo sapiens, UniProt P56817)
T1 construct: 6his-tagged full length BACE 1 from SF9 cells; made in house; host or cells: Sf9 insect cells
Test: BACE1 MR121 protease assay
Type: biochemical
Details: 30 nM 6his-BACE-1, 300 nM substrate peptide WSEVNLDAEFRC-MR121, Na-acetate pH 4.0, fluorescence
Description: Assay plate: 384 well microtiter plate, Corning clear, flat bottom, non binding surface
Assaybuffer: 100 mM Na-acetate pH 4.0, 20 mM EDTA, 0.05% BSA
BACE-1: 6his-tagged full length BACE 1 from SF9 cells
Substrate peptide: WSEVNLDAEFRC-MR121
BACE1 MR121 protease assay
39 μl of a 38 nM 6his-BACE-1 solution in assay buffer (final conc. in the assay: 30 nM) were pipetted into the assay plate. 1 μl of a concentration of a potential inhibitor in dimethylsulfoxide was added to the enzyme and incubated for 10 min. Finally, 10 μl of a 1.5 μM solution of the substrate in assay buffer (final conc. in the assay: 300 nM) was added to start the enzymatic reaction. After strong mixing for 2 min the enzymatic reaction was followed by measuring the fluorescence intensity every two minutes for 15 min on a suitable fluorescence reader. […] The slope was calculated from the linear part of the kinetic as a measure of the activity of BACE-1. A range of concentrations of the potential inhibitor was used to generate data for calculating the concentration of inhibitor resulting in 50% of the effect (e.g. IC50, the concentration of the compound inhibiting the BACE-1 activity by 50%).

T1 sequence (P56817 46-501): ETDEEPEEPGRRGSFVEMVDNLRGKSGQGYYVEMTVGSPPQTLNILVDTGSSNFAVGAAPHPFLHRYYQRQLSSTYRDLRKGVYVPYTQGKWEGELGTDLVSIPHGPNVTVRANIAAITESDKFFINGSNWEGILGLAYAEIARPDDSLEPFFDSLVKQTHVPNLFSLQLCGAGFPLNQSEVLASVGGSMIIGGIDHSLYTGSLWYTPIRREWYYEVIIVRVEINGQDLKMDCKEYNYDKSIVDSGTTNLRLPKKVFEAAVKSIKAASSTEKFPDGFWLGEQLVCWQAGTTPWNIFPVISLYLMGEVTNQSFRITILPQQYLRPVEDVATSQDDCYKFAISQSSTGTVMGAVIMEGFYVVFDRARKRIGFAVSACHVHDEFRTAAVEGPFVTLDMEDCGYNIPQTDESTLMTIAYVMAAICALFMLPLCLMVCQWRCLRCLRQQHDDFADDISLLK

Row | SMILES | IC50
1 | COc1ccc(F)c(-c2cccc(C3(c4ccc(OC(F)F)c(C)c4)COC(N)=N3)c2)c1 (racemic) [Example 105, (RS)-4-(4-Difluoromethoxy-3-methyl-phenyl)-4-(2′-fluoro-5′-methoxy-biphenyl-3-yl)-4,5-dihydro-oxazol-2-ylamine formate] | 130 nM
2 | NC1=NC(c2cccc(-c3cncc(Cl)c3)c2)(c2ccc(OC(F)F)c(F)c2)CO1 (racemic) [Example 115, (RS)-4-[3-(5-Chloro-pyridin-3-yl)-phenyl]-4-(4-difluoromethoxy-3-fluoro-phenyl)-4,5-dihydro-oxazol-2-ylamine formate] | 240 nM
3 | NC1=NC(c2cccc(-c3cncnc3)c2)(c2ccc(OC(F)F)c(Cl)c2)CO1 (racemic) [Example 118, (RS)-4-(3-Chloro-4-difluoromethoxy-phenyl)-4-(3-pyrimidin-5-yl-phenyl)-4,5-dihydro-oxazol-2-ylamine formate] | 200 nM
4 | Cc1cc(C2(c3ccc(F)c(-c4cncnc4)c3)COC(N)=N2)ccc1OC(F)F (racemic) [Example 120, (RS)-4-(4-Difluoromethoxy-3-methyl-phenyl)-4-(4-fluoro-3-pyrimidin-5-yl-phenyl)-4,5-dihydro-oxazol-2-ylamine formate] | 90 nM
5 | Cc1cc(C2(c3ccc(F)c(-c4cncc(F)c4)c3)COC(N)=N2)ccc1OC(F)F (racemic) [Example 122, (RS)-4-(4-Difluoromethoxy-3-methyl-phenyl)-4-[4-fluoro-3-(5-fluoro-pyridin-3-yl)-phenyl]-4,5-dihydro-oxazol-2-ylamine formate] | 150 nM
6 | COc1ccc(F)c(-c2cc(C3(c4ccc(OC(F)F)c(C)c4)COC(N)=N3)ccc2F)c1 (racemic) [Example 123, (RS)-4-(6,2′-Difluoro-5′-methoxy-biphenyl-3-yl)-4-(4-difluoromethoxy-3-methyl-phenyl)-4,5-dihydro-oxazol-2-ylamine formate] | 200 nM
7 | Cc1cc(OC(F)F)ccc1C1(c2cccc(-c3cncnc3)c2)COC(N)=N1 (racemic) [Example 129, (RS)-4-(4-Difluoromethoxy-2-methyl-phenyl)-4-(3-pyrimidin-5-yl-phenyl)-4,5-dihydro-oxazol-2-ylamine formate] | 500 nM
8 | COc1ccc(F)c(-c2cccc(C3(c4ccc(OC(F)F)cc4C)COC(N)=N3)c2)c1 (racemic) [Example 130, (RS)-4-(4-Difluoromethoxy-2-methyl-phenyl)-4-(2′-fluoro-5′-methoxy-biphenyl-3-yl)-4,5-dihydro-oxazol-2-ylamine formate] | 490 nM
9 | Cc1cnc(F)c(-c2cccc(C3(c4ccc(OC(F)F)cc4C)COC(N)=N3)c2)c1 (racemic) [Example 131, (RS)-4-(4-Difluoromethoxy-2-methyl-phenyl)-4-[3-(2-fluoro-5-methyl-pyridin-3-yl)-phenyl]-4,5-dihydro-oxazol-2-ylamine formate] | 460 nM
10 | NC1=NC(c2cccc(-c3cncc(F)c3)c2)(c2ccc(OC(F)F)cc2F)CO1 (racemic) [Example 142, (RS)-4-(4-Difluoromethoxy-2-fluoro-phenyl)-4-[3-(5-fluoro-pyridin-3-yl)-phenyl]-4,5-dihydro-oxazol-2-ylamine formate] | 840 nM
11 | Cc1cc(OC(F)F)ccc1C1(c2cccc(-c3cncc(F)c3)c2)COC(N)=N1 (racemic) [Example 145, (RS)-4-(4-Difluoromethoxy-2-methyl-phenyl)-4-[3-(5-fluoro-pyridin-3-yl)-phenyl]-4,5-dihydro-oxazol-2-ylamine formate] | 720 nM
12 | COc1cncc(-c2cccc(C3(c4ccc(OC(F)F)cc4C)COC(N)=N3)c2)c1 (racemic) [Example 146, (RS)-4-(4-Difluoromethoxy-2-methyl-phenyl)-4-[3-(5-methoxy-pyridin-3-yl)-phenyl]-4,5-dihydro-oxazol-2-ylamine formate] | 200 nM
13 | Cc1cc(OC(F)F)ccc1C1(c2cccc(-c3cccc(Cl)c3)c2)COC(N)=N1 (racemic) [Example 149, (RS)-4-(3′-Chloro-biphenyl-3-yl)-4-(4-difluoromethoxy-2-methyl-phenyl)-4,5-dihydro-oxazol-2-ylamine formate] | 960 nM
14 | COc1cncc(-c2cccc(C3(c4ccc(OC)c(C(F)(F)F)c4)COC(N)=N3)c2)c1 (racemic) [Example 150, formate] | 330 nM
15 | CCOc1cc(Nc2ccccc2)cc(C2(c3ccc(OC(F)F)c(C)c3)COC(N)=N2)c1 (racemic) [Example 192] | 660 nM

The next lines start with the values.

Row | IC50 | SMILES
16 | 290 nM | COc1ccc(C2(c3ccc(F)c(-c4cncc(Cl)c4)c3)COC(N)=N2)cc1Cl (racemic) [Example 108, (RS)-4-(3-Chloro-4-methoxy-phenyl)-4-[3-(5-chloro-pyridin-3-yl)-4-fluoro-phenyl]-4,5-dihydro-oxazol-2-ylamine formate]
17 | 770 nM | COc1ccc(C2(c3ccc(F)c(-c4cccnc4)c3)COC(N)=N2)cc1Cl (racemic) [Example 109, (RS)-4-(3-Chloro-4-methoxy-phenyl)-4-(4-fluoro-3-pyridin-3-yl-phenyl)-4,5-dihydro-oxazol-2-ylamine formate]
18 | 160 nM | COc1cncc(-c2cc(C3(c4ccc(OC)c(Cl)c4)COC(N)=N3)ccc2F)c1 (racemic) [Example 111, (RS)-4-(3-Chloro-4-methoxy-phenyl)-4-[4-fluoro-3-(5-methoxy-pyridin-3-yl)-phenyl]-4,5-dihydro-oxazol-2-ylamine formate]
19 | 640 nM | COc1ccc(C2(c3ccc(F)c(-c4cncc(F)c4)c3)COC(N)=N2)cc1Cl (racemic) [Example 112, (RS)-4-(3-Chloro-4-methoxy-phenyl)-4-[4-fluoro-3-(5-fluoro-pyridin-3-yl)-phenyl]-4,5-dihydro-oxazol-2-ylamine]
20 | 730 nM | COc1ccc(C2(c3ccc(F)c(-c4cc(C)cnc4F)c3)COC(N)=N2)cc1Cl (racemic) [Example 113, (RS)-4-(3-Chloro-4-methoxy-phenyl)-4-[4-fluoro-3-(2-fluoro-5-methyl-pyridin-3-yl)-phenyl]-4,5-dihydro-oxazol-2-ylamine]
21 | 660 nM | COc1ccc(F)c(-c2cc(C3(c4ccc(OC)c(Cl)c4)COC(N)=N3)ccc2F)c1 (racemic) [Example 114, (RS)-4-(3-Chloro-4-methoxy-phenyl)-4-(6,2′-difluoro-5′-methoxy-biphenyl-3-yl)-4,5-dihydro-oxazol-2-ylamine formate]
22 | 80 nM | COc1cncc(-c2cccc(C3(c4ccc(OC(F)F)c(Cl)c4)COC(N)=N3)c2)c1 (racemic) [Example 117, (RS)-4-(3-Chloro-4-difluoromethoxy-phenyl)-4-[3-(5-methoxy-pyridin-3-yl)-phenyl]-4,5-dihydro-oxazol-2-ylamine formate]
23 | 130 nM | Cc1cc(C2(c3ccc(F)c(-c4cccnc4)c3)COC(N)=N2)ccc1OC(F)F (racemic) [Example 119, (RS)-4-(4-Difluoromethoxy-3-methyl-phenyl)-4-(4-fluoro-3-pyridin-3-yl-phenyl)-4,5-dihydro-oxazol-2-ylamine formate]
24 | 50 nM | COc1cncc(-c2cc(C3(c4ccc(OC(F)F)c(C)c4)COC(N)=N3)ccc2F)c1 (racemic) [Example 121, (RS)-4-(4-Difluoromethoxy-3-methyl-phenyl)-4-[4-fluoro-3-(5-methoxy-pyridin-3-yl)-phenyl]-4,5-dihydro-oxazol-2-ylamine formate]
